Entries after “also recorded” stand apart in the source; their conditions may differ.
Experiments:
HOIP RBR domain [1] = biological target: T1, HOIP RBR domain (Homo sapiens, UniProt Q96EP0); assay: In vitro polyubiquitination assay; format: biochemical; details: HOIP RBR preincubated with compound (200 μM) overnight; E2 UbcH7 or UbcH5c; vs DMSO
T1 construct: made in house; host or cells: E. coli BL21-GOLD(DE3)
T1 sequence (Q96EP0 697-1072): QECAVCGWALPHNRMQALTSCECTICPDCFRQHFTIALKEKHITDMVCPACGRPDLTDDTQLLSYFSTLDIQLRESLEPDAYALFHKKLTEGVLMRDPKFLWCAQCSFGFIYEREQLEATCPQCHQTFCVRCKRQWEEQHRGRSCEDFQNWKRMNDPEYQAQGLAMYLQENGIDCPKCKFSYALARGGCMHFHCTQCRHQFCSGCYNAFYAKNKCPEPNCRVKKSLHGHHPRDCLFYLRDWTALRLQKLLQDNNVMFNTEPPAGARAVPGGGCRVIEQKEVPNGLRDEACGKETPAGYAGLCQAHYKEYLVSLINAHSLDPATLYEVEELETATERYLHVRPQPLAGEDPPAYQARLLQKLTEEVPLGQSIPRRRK
Procedure: 4.3 Polyubiquitination assay
The ubiquitination assay was essentially carried out as previously described.12 The HOIP RBR domain was pre-incubated with compounds (5) or (6), or DMSO in 50 mM HEPES, 150 mM NaCl, pH 7.5 buffer at 23 °C with gentle shaking for overnight (20-24 h). E1, E2 (UbcH7 or UbcH5c), ubiquitin, and MgCl2 were added to each vial, and aliquots of 15 µL were withdrawn to mark time zero. ATP was then added and aliquots of 15 µL were withdrawn after 5, 15, 30, and 60 min incubation. Final concentrations: E1 (1 µM), E2 (5 µM), E3 (5 µM), compounds (200 µM), DMSO (1%), ubiquitin (40 µM), MgCl2 (20 mM), ATP (10 mM); reaction volume 100 µL. The aliquots were analyzed by SDS PAGE (Figure 4A and Supplementary Figure S9) as described below (section

HOIP RBR domain [2] = biological target: T1, HOIP RBR domain; assay: Protein LC-MS compound screening of analogs; format: binding; details: 2 μM protein, 0.5, 4, 24 h; for labeling of HOIP RBR domain relative to hit (5): 20 μM compound (10-fold excess)
Procedure: of (1) and 3 mM stock solution of (5) in DMSO, giving a final concentration of 6 and 30 µM respectively, and 1% DMSO).
The UbcH5c and UbcH7 E2 enzymes were diluted with buffer to afford new stock solutions at 10 µM, of which 25 µL was used for each sample (final concentration 5 µM, 85-91 µg/mL), together with 24.5 µL buffer and 0.5 µL compound solution (1 mM stock solution of (1) and 5 mM stock solution of (5) in DMSO, giving a final concentration of 10 and 50 µM respectively, and 1% DMSO).
The E1 enzyme was diluted with buffer to afford a new stock solution at 2 µM, of which 25 µL was used for each sample (final concentration 1 µM, 120 µg/mL), together with 24.5 µL buffer and 0.5 µL compound solution (200 µM stock solution of (1) and 1 mM stock solution of (5) in DMSO, giving a final concentration of 2 and 10 µM respectively, and 1% DMSO).
Protocol as described above, using the HOIP RBR (stock solutions around 300 µM) in buffer (50 mM HEPES, 150 mM NaCl, pH 7.5) to afford a new stock solution at 4 µM of which 25 µL was used for each sample (final concentration 2 µM, 87 µg/mL), together with 24.5 µL buffer and 0.5 µL compound solution (2 mM stock solutions in DMSO, giving a final concentration of 20 µM, and 1% DMSO). The samples were analyzed after 0.5, 4, and 24 h incubation.
Supplementary Figure S7. TIC traces of deconvoluted protein masses from the screening of analogues to hit compound (5). The HOIP RBR (2 µM; MW = 43398 g/mol) was incubated with […]
compound (17) and aliquots were analyzed after 0.5, 4, and 24 h incubation. The data was used for the generation of the heat map in Figure 5A.
(1 picture or pasted object on this page, not shown here)

[3] = system: NF-κB activation in HEK293T cells overexpressing full length HOIP, HOIL-1L, and SHARPIN; assay: NF-κB Luciferase reporter assay; format: cell-based; details: overnight (17 h) treatment
Procedure: suspensions were agitated at 4 °C overnight. The supernatants were removed and kept on ice, and the beads were washed with wash buffer (2 × 0.5 mL), PBS (2 × 0.5 mL), and 50 mM HEPES, 150 mM NaCl, pH 7.5 buffer (2 × 0.5 mL).
A polyubiquitination assay master mix was prepared by mixing E1, UbcH7, ubiquitin, MgCl2, in buffer (50 mM HEPES, 150 mM NaCl, pH 7.5). The solution (30 µL per sample) was added to the beads, and lastly ATP (0.6 µL of 100 mM stock) was added to initiate the reaction. Final concentrations were E1 (0.2 µM), UbcH7 E2 (1 µM), ubiquitin (10 µM), MgCl2 (4 mM), ATP (2 mM). The vials were incubated (Eppendorf Thermomixer) at 25 °C, 900 rpm for 1.5 h. […] All samples were analyzed by SDS PAGE and Western Blot (Figure 6C and Supplementary Figure S13) as described in sections 4.5 and 4.6. […]
(§1) Reporter assays: After incubating the plates for 17 h, Firefly and Renilla Luciferase activity was analyzed using the Dual-Luciferase® Reporter Assay System (Promega) and a BertholdTech […]
(§2) with Mikrowin 2000 software version 4.41: using its injectors to inject 100 µL LAR II and 100 µL Stop&Glo (see manufacturer’s instructions; Promega #E1960). NF-κB regulated luciferase activity was first normalized to Renilla luciferase activity and then the fold activation relative to cells transfected with empty vector calculated. […]
reader. […]

[4] = system: HEK293T cells overexpressing full-length HOIP, HOIL-1L, and SHARPIN; assay: CellTiter-Glo Luminescent cell viability assay, transfected cells; format: cell-based; details: 17 h
Procedure: Thurston, Imperial College London. 2.3 × 10^6 cells were seeded into 100 mm Petri dishes in DMEM media supplemented with 10% v/v FBS (Biosera) and 1% v/v L-glutamine/penicillin/streptomycin (Sigma-Aldrich) and incubated at 37 °C overnight. The following morning the cells were transfected using either 6 µg pcDNA3 or 4.5 µg HOIP, 0.3 µg HOIL-1L and 1.2 µg SHARPIN as well as 450 ng pRDII Luc and 180 ng pRLTK (Promega) plasmids. 7 h after transfection, the cells were trypsinized and re-suspended in DMEM media supplemented with 1% v/v FBS (Biosera) and 1% v/v L-glutamine/penicillin/streptomycin (Sigma-Aldrich). […]
as §1, §2
Cell viability assays: After incubating the plates for 17 h in the presence of compound, cell viability was determined using the CellTiter-Glo® Luminescent Cell Viability Assay according to manufacturer’s instructions (Promega #G7571). […]

Which polyubiquitin chain formation (HOIP RBR domain [1]) does the source give for `COC(=O)CCCNC(=O)c1cc2c([nH]c1=O)CCC2` [Compound 6] here?
The polyubiquitin chain formation was “no inhibitory effect; also recorded: no effect on catalytic activity”.

What about the “labeling of HOIP RBR domain relative to hit (5)” value (HOIP RBR domain [2]) of the same compound?
Its value is “abolished activity”.

How did the “effect on NF-κB activity” value [3] turn out when `COC(=O)CCCNC(=O)c1cc2c([nH]c1=O)CCCC2` [Compound 17] was run?
The value was “no effect on NF-κB activity”.

And the “labeling of HOIP RBR domain” value (HOIP RBR domain [2]; 200 μM compound)?
Its value is “abolished activity”.

And the “effect on cell viability” value [4]?
The value was “neither compound had any effect on cell viability”.

For `COC(=O)/C=C/CCNC(=O)c1cc2c([nH]c1=O)CCC2` [Compound 9], which “labeling of HOIP RBR domain relative to hit (5)” value (HOIP RBR domain [2]) is on record?
Its value is “significantly lower activity”.

Which “labeling of HOIP RBR domain relative to hit (5)” value (HOIP RBR domain [2]) does the source give for `COC(=O)/C=C/CNC(C)=O` [Compound 10] here?
Its value is “significantly lower activity”.

`COC(=O)/C=C/CNC(=O)c1ccc(-c2ccccc2)[nH]c1=O` [Compound 11i] was tested. Which “labeling of HOIP RBR domain relative to hit (5)” value (HOIP RBR domain [2]) did it give?
Its value is “inactive”.

From publication PMC6383986, “Fragment-Based Covalent Ligand Screening Enables Rapid Discovery of Inhibitors for the RBR E3 Ubiquitin Ligase HOIP” (Journal of the American Chemical Society, 2019)
